# Test results reported in patent publication US8192962B2, “Processes for detecting toxic substances” (Daikin Industries, Ltd., priority 2001, dated 2012).
# System: Stress protein genes
# Experiment: DNA chip mRNA expression in yeast, stress protein genes (Table 6)
# Type: cell-based, Saccharomyces cerevisiae S288C
# Method in brief: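 Value is the scanned fluorescence intensity ratio of exposed versus chemical-free cells. Log-phase S288C yeast in YPD at 25° C. received one toxic substance for two hours, dosed to slow growth without killing; Cy3/Cy5-labeled cDNA from oligo-dT-purified mRNA was hybridized to a whole-genome chip at 65° C.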
compound,measurement,setting,value
"COc1cc(CNC(=O)CCCCC=CC(C)C)ccc1O [(12), 8-methyl-N-vanillyl-6-nonenamide]",The level of expressed mRNA in the presence of chemical substance/The level of expressed mRNA in the absence of chemical substance,yeast gene YAL005C,1.2
same,The level of expressed mRNA in the presence of chemical substance/The level of expressed mRNA in the absence of chemical substance,yeast gene YAL015C,1.0
same,The level of expressed mRNA in the presence of chemical substance/The level of expressed mRNA in the absence of chemical substance,yeast gene YBL075C,1.1
same,The level of expressed mRNA in the presence of chemical substance/The level of expressed mRNA in the absence of chemical substance,yeast gene YBL093C,1.1
same,The level of expressed mRNA in the presence of chemical substance/The level of expressed mRNA in the absence of chemical substance,yeast gene YBR044C,0.8
same,The level of expressed mRNA in the presence of chemical substance/The level of expressed mRNA in the absence of chemical substance,yeast gene YBR054W,0.7
same,The level of expressed mRNA in the presence of chemical substance/The level of expressed mRNA in the absence of chemical substance,yeast gene YBR067C,1.0
same,The level of expressed mRNA in the presence of chemical substance/The level of expressed mRNA in the absence of chemical substance,yeast gene YBR072W,16.3
same,The level of expressed mRNA in the presence of chemical substance/The level of expressed mRNA in the absence of chemical substance,yeast gene YBR126C,1.3
same,The level of expressed mRNA in the presence of chemical substance/The level of expressed mRNA in the absence of chemical substance,yeast gene YBR169C,1.7
same,The level of expressed mRNA in the presence of chemical substance/The level of expressed mRNA in the absence of chemical substance,yeast gene YCL035C,1.5
same,The level of expressed mRNA in the presence of chemical substance/The level of expressed mRNA in the absence of chemical substance,yeast gene YCR021C,0.5
same,The level of expressed mRNA in the presence of chemical substance/The level of expressed mRNA in the absence of chemical substance,yeast gene YCR060W,1.7
same,The level of expressed mRNA in the presence of chemical substance/The level of expressed mRNA in the absence of chemical substance,yeast gene YCR083W,1.1
same,The level of expressed mRNA in the presence of chemical substance/The level of expressed mRNA in the absence of chemical substance,yeast gene YDL022W,1.2
same,The level of expressed mRNA in the presence of chemical substance/The level of expressed mRNA in the absence of chemical substance,yeast gene YDL025C,0.9
same,The level of expressed mRNA in the presence of chemical substance/The level of expressed mRNA in the absence of chemical substance,yeast gene YDR033W,1.0
same,The level of expressed mRNA in the presence of chemical substance/The level of expressed mRNA in the absence of chemical substance,yeast gene YDR077W,0.8
same,The level of expressed mRNA in the presence of chemical substance/The level of expressed mRNA in the absence of chemical substance,yeast gene YDR098C,1.3
same,The level of expressed mRNA in the presence of chemical substance/The level of expressed mRNA in the absence of chemical substance,yeast gene YDR155C,1.4
same,The level of expressed mRNA in the presence of chemical substance/The level of expressed mRNA in the absence of chemical substance,yeast gene YDR258C,1.8
same,The level of expressed mRNA in the presence of chemical substance/The level of expressed mRNA in the absence of chemical substance,yeast gene YDR293C,0.9
same,The level of expressed mRNA in the presence of chemical substance/The level of expressed mRNA in the absence of chemical substance,yeast gene YDR436W,0.9
same,The level of expressed mRNA in the presence of chemical substance/The level of expressed mRNA in the absence of chemical substance,yeast gene YDR513W,0.9
same,The level of expressed mRNA in the presence of chemical substance/The level of expressed mRNA in the absence of chemical substance,yeast gene YDR519W,1.7
same,The level of expressed mRNA in the presence of chemical substance/The level of expressed mRNA in the absence of chemical substance,yeast gene YEL030W,0.9
same,The level of expressed mRNA in the presence of chemical substance/The level of expressed mRNA in the absence of chemical substance,yeast gene YEL039C,0.6
same,The level of expressed mRNA in the presence of chemical substance/The level of expressed mRNA in the absence of chemical substance,yeast gene YER042W,1.1
same,The level of expressed mRNA in the presence of chemical substance/The level of expressed mRNA in the absence of chemical substance,yeast gene YER057C,1.5
same,The level of expressed mRNA in the presence of chemical substance/The level of expressed mRNA in the absence of chemical substance,yeast gene YER103W,1.9
same,The level of expressed mRNA in the presence of chemical substance/The level of expressed mRNA in the absence of chemical substance,yeast gene YER125W,0.7
same,The level of expressed mRNA in the presence of chemical substance/The level of expressed mRNA in the absence of chemical substance,yeast gene YFL014W,4.3
same,The level of expressed mRNA in the presence of chemical substance/The level of expressed mRNA in the absence of chemical substance,yeast gene YFL016C,1.0
same,The level of expressed mRNA in the presence of chemical substance/The level of expressed mRNA in the absence of chemical substance,yeast gene YFL020C,1.3
same,The level of expressed mRNA in the presence of chemical substance/The level of expressed mRNA in the absence of chemical substance,yeast gene YFR052W,1.8
same,The level of expressed mRNA in the presence of chemical substance/The level of expressed mRNA in the absence of chemical substance,yeast gene YGL073W,0.8
same,The level of expressed mRNA in the presence of chemical substance/The level of expressed mRNA in the absence of chemical substance,yeast gene YGL115W,0.9
same,The level of expressed mRNA in the presence of chemical substance/The level of expressed mRNA in the absence of chemical substance,yeast gene YGL181W,1.0
same,The level of expressed mRNA in the presence of chemical substance/The level of expressed mRNA in the absence of chemical substance,yeast gene YGR088W,1.1
same,The level of expressed mRNA in the presence of chemical substance/The level of expressed mRNA in the absence of chemical substance,yeast gene YHL028W,1.5
same,The level of expressed mRNA in the presence of chemical substance/The level of expressed mRNA in the absence of chemical substance,yeast gene YHL046C,1.1
same,The level of expressed mRNA in the presence of chemical substance/The level of expressed mRNA in the absence of chemical substance,yeast gene YHR030C,0.7
same,The level of expressed mRNA in the presence of chemical substance/The level of expressed mRNA in the absence of chemical substance,yeast gene YHR057C,1.1
same,The level of expressed mRNA in the presence of chemical substance/The level of expressed mRNA in the absence of chemical substance,yeast gene YHR104W,1.0
same,The level of expressed mRNA in the presence of chemical substance/The level of expressed mRNA in the absence of chemical substance,yeast gene YIL011W,0.6
same,The level of expressed mRNA in the presence of chemical substance/The level of expressed mRNA in the absence of chemical substance,yeast gene YIL033C,1.1
same,The level of expressed mRNA in the presence of chemical substance/The level of expressed mRNA in the absence of chemical substance,yeast gene YIR037W,1.3
same,The level of expressed mRNA in the presence of chemical substance/The level of expressed mRNA in the absence of chemical substance,yeast gene YIR038C,1.1
same,The level of expressed mRNA in the presence of chemical substance/The level of expressed mRNA in the absence of chemical substance,yeast gene YJL128C,1.0
same,The level of expressed mRNA in the presence of chemical substance/The level of expressed mRNA in the absence of chemical substance,yeast gene YJL158C,1.1
same,The level of expressed mRNA in the presence of chemical substance/The level of expressed mRNA in the absence of chemical substance,yeast gene YJL159W,1.0
same,The level of expressed mRNA in the presence of chemical substance/The level of expressed mRNA in the absence of chemical substance,yeast gene YJL165C,0.9
same,The level of expressed mRNA in the presence of chemical substance/The level of expressed mRNA in the absence of chemical substance,yeast gene YJR045C,1.0
same,The level of expressed mRNA in the presence of chemical substance/The level of expressed mRNA in the absence of chemical substance,yeast gene YJR090C,0.8
same,The level of expressed mRNA in the presence of chemical substance/The level of expressed mRNA in the absence of chemical substance,yeast gene YKL161C,0.9
same,The level of expressed mRNA in the presence of chemical substance/The level of expressed mRNA in the absence of chemical substance,yeast gene YKL163W,0.9
same,The level of expressed mRNA in the presence of chemical substance/The level of expressed mRNA in the absence of chemical substance,yeast gene YKL164C,0.8
same,The level of expressed mRNA in the presence of chemical substance/The level of expressed mRNA in the absence of chemical substance,yeast gene YKL210W,1.3
same,The level of expressed mRNA in the presence of chemical substance/The level of expressed mRNA in the absence of chemical substance,yeast gene YKR053C,0.7
same,The level of expressed mRNA in the presence of chemical substance/The level of expressed mRNA in the absence of chemical substance,yeast gene YLL024C,1.0
same,The level of expressed mRNA in the presence of chemical substance/The level of expressed mRNA in the absence of chemical substance,yeast gene YLL026W,1.9
same,The level of expressed mRNA in the presence of chemical substance/The level of expressed mRNA in the absence of chemical substance,yeast gene YLL039C,1.0
same,The level of expressed mRNA in the presence of chemical substance/The level of expressed mRNA in the absence of chemical substance,yeast gene YLL060C,1.1
same,The level of expressed mRNA in the presence of chemical substance/The level of expressed mRNA in the absence of chemical substance,yeast gene YLR006C,0.7
same,The level of expressed mRNA in the presence of chemical substance/The level of expressed mRNA in the absence of chemical substance,yeast gene YLR109W,1.6
same,The level of expressed mRNA in the presence of chemical substance/The level of expressed mRNA in the absence of chemical substance,yeast gene YLR259C,0.7
same,The level of expressed mRNA in the presence of chemical substance/The level of expressed mRNA in the absence of chemical substance,yeast gene YML007W,1.1
same,The level of expressed mRNA in the presence of chemical substance/The level of expressed mRNA in the absence of chemical substance,yeast gene YML070W,1.3
same,The level of expressed mRNA in the presence of chemical substance/The level of expressed mRNA in the absence of chemical substance,yeast gene YMR021C,0.8
same,The level of expressed mRNA in the presence of chemical substance/The level of expressed mRNA in the absence of chemical substance,yeast gene YMR173W,1.4
same,The level of expressed mRNA in the presence of chemical substance/The level of expressed mRNA in the absence of chemical substance,yeast gene YMR186W,1.0
same,The level of expressed mRNA in the presence of chemical substance/The level of expressed mRNA in the absence of chemical substance,yeast gene YNL064C,0.8
same,The level of expressed mRNA in the presence of chemical substance/The level of expressed mRNA in the absence of chemical substance,yeast gene YNL160W,1.4
same,The level of expressed mRNA in the presence of chemical substance/The level of expressed mRNA in the absence of chemical substance,yeast gene YNL241C,2.0
same,The level of expressed mRNA in the presence of chemical substance/The level of expressed mRNA in the absence of chemical substance,yeast gene YNR076W,0.7
same,The level of expressed mRNA in the presence of chemical substance/The level of expressed mRNA in the absence of chemical substance,yeast gene YOL064C,0.9
same,The level of expressed mRNA in the presence of chemical substance/The level of expressed mRNA in the absence of chemical substance,yeast gene YOL161C,1.3
same,The level of expressed mRNA in the presence of chemical substance/The level of expressed mRNA in the absence of chemical substance,yeast gene YOR008C,0.7
same,The level of expressed mRNA in the presence of chemical substance/The level of expressed mRNA in the absence of chemical substance,yeast gene YOR009W,0.4
same,The level of expressed mRNA in the presence of chemical substance/The level of expressed mRNA in the absence of chemical substance,yeast gene YOR010C,0.5
same,The level of expressed mRNA in the presence of chemical substance/The level of expressed mRNA in the absence of chemical substance,yeast gene YOR027W,1.3
same,The level of expressed mRNA in the presence of chemical substance/The level of expressed mRNA in the absence of chemical substance,yeast gene YOR208W,1.2
same,The level of expressed mRNA in the presence of chemical substance/The level of expressed mRNA in the absence of chemical substance,yeast gene YPL059W,0.8
same,The level of expressed mRNA in the presence of chemical substance/The level of expressed mRNA in the absence of chemical substance,yeast gene YPL106C,1.1
same,The level of expressed mRNA in the presence of chemical substance/The level of expressed mRNA in the absence of chemical substance,yeast gene YPL140C,0.8
same,The level of expressed mRNA in the presence of chemical substance/The level of expressed mRNA in the absence of chemical substance,yeast gene YPL194W,0.9
same,The level of expressed mRNA in the presence of chemical substance/The level of expressed mRNA in the absence of chemical substance,yeast gene YPL223C,0.9
same,The level of expressed mRNA in the presence of chemical substance/The level of expressed mRNA in the absence of chemical substance,yeast gene YPL240C,0.8
same,The level of expressed mRNA in the presence of chemical substance/The level of expressed mRNA in the absence of chemical substance,yeast gene YPR005C,0.6
same,The level of expressed mRNA in the presence of chemical substance/The level of expressed mRNA in the absence of chemical substance,yeast gene YPR026W,1.2
